“And” between values parts separate entries of the source, which are not always exact repeats. Equal values may be shown once.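 Five concentrations, 48 hours, 96-well plates. GI50 marks 50% less growth. TGI is the concentration that stops growth completely.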
What was measured:
Test in all cases: DTP human tumour cell line panel, 48 h
[1] = test system: K-562 leukemia
[2] = test system: SK-OV-3 ovarian
[3] = test system: UACC-257 melanoma
[4] = test system: BT-549 breast
[5] = test system: DU-145 prostate
[6] = test system: HS 578T breast
[7] = test system: MDA-MB-231 breast
[8] = test system: NCI/ADR-RES ovarian
[9] = test system: PC-3 prostate
[10] = test system: SR leukemia

## Clc1ccccc1C1N2CCCCC2[C@@H]2c3[nH]c4ccccc4c3CCN12 (some centres undefined)
[1]
  TGI: 44.2 µM
[2]
  TGI: 55 µM
[3]
  TGI: 42.2 µM

## C=CC[N+]1(CCO)CCN=C1CCCCCCCCCCCCC (centres undefined)
[4]
  GI50: 1.76 µM
  TGI: 3.24 µM
[5]
  GI50: 1.6 µM
  TGI: 2.95 µM
[6]
  GI50: 1.58 µM
  TGI: 3.76 µM
[7]
  GI50: 1.61 µM
  TGI: 3.1 µM
[8]
  GI50: 1.65 µM
  TGI: 3.01 µM
[9]
  GI50: 1.37 µM
  TGI: 2.85 µM
[2]
  GI50: 1.73 µM
  TGI: 3.14 µM
[3]
  GI50: 1.76 µM
  TGI: 3.27 µM

## CCCCCCCCCCCCC/C=C1\C[C@H](O)COC1=O
[1]
  TGI: 33.1 µM
[2]
  TGI: 35.1 µM
[10]
  TGI: 51.2 µM
[3]
  TGI: 28.4 µM

## COC1=C(C)C(=O)C2=C(C1=O)C(CO)N1C(C#N)C3CC4C(C1C2N1CCOC41)N3C (centres undefined)
[4]
  GI50: 0.00373 µM and 0.0232 µM and < 0.01 µM
  TGI: 0.00951 µM and 0.0873 µM and < 0.0111 µM
[5]
  GI50: 0.0438 µM and 0.362 µM and 0.133 µM
  TGI: 14 µM
[1]
  GI50: 0.00627 µM and < 0.01 µM
  TGI: 0.547 µM and 0.0682 µM and 0.123 µM
[7]
  TGI: 1.37 µM
[8]
  TGI: 0.45 µM and 0.182 µM
[9]
  GI50: 0.00946 µM and 0.0889 µM and 0.0764 µM
  TGI: 0.663 µM and 0.387 µM
[2]
  TGI: 1.32 µM and 2.7 µM and 1.7 µM
[10]
  GI50: 0.00159 µM and 0.00538 µM
[3]
  GI50: 0.00238 µM and 0.0198 µM

## c1ccc(CCCC2Sc3cccc4cccc(c34)S2)cc1
[1]
  TGI: > 100 µM
[2]
  TGI: > 100 µM

## N.N.N.N.N.N#N.[Cl-].[Os+7]
[10]
  GI50: > 100 µM
  TGI: > 100 µM

## C=CC(=O)NCCOc1cccc(Nc2cc(NCCCNC(=O)C3CCC3)c(Br)cn2)c1
[4]
  GI50: 0.603 µM
  TGI: 1.93 µM
[5]
  GI50: 1.21 µM
  TGI: > 25 µM
[6]
  GI50: 0.567 µM
  TGI: 1.7 µM
[1]
  GI50: 1.16 µM
  TGI: > 25 µM
[7]
  GI50: 0.478 µM
  TGI: 1.48 µM
[8]
  GI50: 8.74 µM
  TGI: > 25 µM
[9]
  GI50: 1.3 µM
  TGI: 11 µM
[2]
  GI50: 1 µM
  TGI: 4.06 µM
[3]
  GI50: 3.34 µM
  TGI: > 25 µM

## Fc1c[c-]c(-c2ccccn2)c(F)c1.[CH3-].[Pt+2].c1ccc([PH+](c2ccccc2)c2ccccn2)cc1
[5]
  GI50: 1.79 µM
  TGI: 3.92 µM
[6]
  GI50: 1.96 µM
  TGI: 5.89 µM
[1]
  GI50: 1.78 µM
  TGI: > 100 µM
[7]
  GI50: 1.61 µM
  TGI: 3.31 µM
[8]
  GI50: 1.81 µM
  TGI: 5.35 µM
[9]
  GI50: 1.41 µM
  TGI: 3.89 µM
[2]
  GI50: 5.09 µM
  TGI: > 100 µM
[10]
  GI50: 0.786 µM
  TGI: 7.05 µM
[3]
  GI50: 1.67 µM
  TGI: 5.07 µM

## CCCCCCCCCCCCOC1C(CNCC2OC3OC(C)(C)OC3C2NC(=O)Nc2ccc(C(F)(F)F)cc2)OC2OC(C)(C)OC21 (centres undefined)
[4]
  GI50: 7.44 µM
  TGI: 14.4 µM
[5]
  GI50: 5.03 µM
  TGI: 11.9 µM
[6]
  GI50: 5.39 µM
  TGI: 14.1 µM
[1]
  GI50: 0.0327 µM
  TGI: 2.62 µM
[7]
  GI50: 2.94 µM
  TGI: 7.37 µM
[8]
  GI50: 8.44 µM
  TGI: 17.1 µM
[9]
  GI50: 6.68 µM
  TGI: 13.2 µM
[2]
  GI50: 9.06 µM
  TGI: 17.2 µM
[3]
  GI50: 8.62 µM
  TGI: 17.9 µM

## CCOC(=O)C12CCSC1C1(C#N)C(C#N)=CC2(N=P(c2ccccc2)(c2ccccc2)c2ccccc2)n2c(=O)n(-c3ccccc3)c(=O)n21 (centres undefined)
[1]
  TGI: > 100 µM
[3]
  TGI: 94.3 µM

## Cc1cccc(Cl)c1NC(N)=S
[1]
  TGI: > 100 µM
[2]
  TGI: > 100 µM
[3]
  TGI: > 100 µM

## Cc1ccc(/C=N/NS(=O)(=O)c2ccccc2)cc1
[1]
  TGI: > 100 µM
[2]
  TGI: > 100 µM
[10]
  TGI: > 100 µM
[3]
  TGI: > 100 µM

## CCOc1ccccc1NC(=O)C(=O)C(C(=O)c1ccc2ccccc2c1)C1OC(=O)c2ccccc21 (centres undefined)
[1]
  TGI: > 100 µM
[2]
  TGI: 52.8 µM
[3]
  TGI: 50.9 µM

## NC1=NN(c2ccccc2)C(=O)C1/C(=N\NC(=O)c1cc2ccccc2cc1O)C(=O)Nc1nc([N+](=O)[O-])cs1 (centres undefined)
[1]
  TGI: 42.2 µM
[2]
  TGI: > 100 µM
[10]
  TGI: 58.3 µM
[3]
  TGI: 64.4 µM

## CC(C)(C)CC(C)(C)N(CSc1ccc(Cl)cc1)CSc1ccc(Cl)cc1
[5]
  GI50: 2.25 µM
  TGI: 11.2 µM
[6]
  GI50: 1.72 µM
  TGI: > 100 µM
[1]
  GI50: 3.49 µM
  TGI: 26 µM
[7]
  GI50: 0.486 µM
  TGI: 2.2 µM
[8]
  GI50: 2.42 µM
  TGI: > 100 µM
[9]
  GI50: 0.472 µM
  TGI: 4.3 µM
[2]
  GI50: 2.68 µM
  TGI: 12.4 µM
[10]
  GI50: 1.23 µM
  TGI: 5.51 µM
[3]
  GI50: 1.85 µM
  TGI: 6.18 µM

## CC1(C(=O)NCCN(CCNC(=O)C2(C)CC3(C)CC(C)(C2)C(=O)NC3=O)CCNC(=O)C2(C)CC3(C)CC(C)(C2)C(=O)NC3=O)CC2(C)CC(C)(C1)C(=O)NC2=O (centres undefined)
[1]
  TGI: > 100 µM
[2]
  TGI: > 100 µM
[10]
  TGI: > 100 µM
[3]
  TGI: > 100 µM

## C/C=C/C(=O)[C@@H](O)C(C)C
[1]
  TGI: > 100 µM
[2]
  TGI: > 100 µM
[10]
  TGI: > 100 µM
[3]
  TGI: > 100 µM

## COc1ccc(C(=O)Nc2ccc(S(=O)(=O)NCC(=O)O)cc2)cc1
[1]
  TGI: > 100 µM
[2]
  TGI: > 100 µM
[3]
  TGI: > 100 µM

From PubChem BioAssay (NCI)
